Patent US9434728B1, “Nitrogen containing compounds and their use” (WOCKHARDT LIMITED, priority 2013, dated 2016)
Values after ≈ are worked out from the molar mass of the structure shown.

Assays:
Type in all cases: cell-based
[1] = system: K. pneumoniae (S48); experiment: Antibacterial activity, agar dilution MIC (CLSI); conditions: Klebsiella pneumoniae, ESBL NDM, SHV
Protocol: (§1) The biological activity of representative compounds according to the invention against various bacterial strains was investigated. In a typical study, overnight grown bacterial cultures were diluted appropriately and inoculated on the agar media containing doubling dilutions of the test compounds. Observations for growth or no growth was performed after 16-20 hours of incubation at 35±2° C. in the ambient air. The overall procedure was performed as per Clinical and Laboratory Standards Institute (CLSI) recommendations (Clinical and Laboratory Standards Institute (CLSI), Performance Standards for Antimicrobial Susceptibility Testing, 20th Informational Supplement, M 100-S20, Volume 30, No. 1, 2010). […] The Compound (XI), which is the free zwitterionic form of Compound (X), was also studied for the antibacterial activity profile.

[2] = system: P. aeruginosa (MBL18); experiment: Antibacterial activity, agar dilution MIC (CLSI); conditions: Pseudomonas aeruginosa, ESBL VIM
Protocol: as §1

[3] = system: E. coli (NCTC 13352); experiment: Antibacterial activity, agar dilution MIC (CLSI); conditions: Escherichia coli, NCTC13352, ESBL TEM 10
Protocol: as §1

[4] = system: K. pneumoniae (H521); experiment: Antibacterial activity, agar dilution MIC (CLSI); conditions: Klebsiella pneumoniae, ESBL KPC
Protocol: as §1

[5] = system: E. coli (7MP); experiment: Antibacterial activity, agar dilution MIC (CLSI); conditions: Escherichia coli, ESBL SHV, CMY
Protocol: as §1

[6] = system: E. coli (NCTC 13353); experiment: Antibacterial activity, agar dilution MIC (CLSI); conditions: Escherichia coli, NCTC13353, ESBL CTXM-15
Protocol: as §1

[7] = system: E. coli H483; experiment: Antibacterial activity in combination with Ceftazidime, agar dilution MIC; conditions: Escherichia coli; agent alone; E. coli H483, ESBL CMY-2
Protocol: as §1
(§2) The antibacterial activity of the Compound (XI) was also studied in combination with other beta-lactam antibacterial agents. […] The antibacterial activity of the combination of Compound (XI) (4 μg/ml) and Ceftazidime was compared with (i) combination of Cetftazidime and Avibactam (4 μg/ml); and (ii) Imipenem alone.

[8] = system: K. pneumoniae J102; experiment: as above; conditions: Klebsiella pneumoniae; agent alone; K. pneumoniae J102, ESBL TEM-1, SHV-5, OMP
Protocol: as §1, §2

[9] = system: K. pneumoniae ATCC 700603; experiment: as above; conditions: Klebsiella pneumoniae, ATCC700603; agent alone; K. pneumoniae ATCC 700603, ESBL SHV-18
Protocol: as §1, §2

[10] = system: K. pneumoniae J101; experiment: as above; conditions: Klebsiella pneumoniae; agent alone; K. pneumoniae J101, ESBL TEM-1, SHV-12, OMP
Protocol: as §1, §2

[11] = system: resistant ESBL strains of K. pneumoniae, E. coli and P. aeruginosa; experiment: Antibacterial activity profile
Protocol: as §1

Compound	MIC [1] [µg/mL]	MIC [2] [µg/mL]	MIC [3] [µg/mL]	MIC [4] [µg/mL]	MIC [5] [µg/mL]	MIC [6] [µg/mL]	MIC [7] [µg/mL]	MIC [8] [µg/mL]	MIC [9] [µg/mL]	MIC [10] [µg/mL]	antibacterial activity (in words) [11]
CO/N=C(\C(=O)N[C@@H]1C(=O)N2C(C(=O)[O-])=C(C[N+]3(C)CCCC3)CS[C@H]12)c1csc(N)n1 [Cefepime]	> 32	> 32	2 (≈ 4.16 µM)	> 32	16 (≈ 33.3 µM)	> 32	–	–	–	–	–
CC(C)(O/N=C(\C(=O)N[C@@H]1C(=O)N2C(C(=O)[O-])=C(C[n+]3ccccc3)CS[C@H]12)c1csc(N)n1)C(=O)O [Ceftazidime]	> 32	> 32	> 32	> 32	> 32	> 32	> 32	> 32	16	> 32	–
NC[C@@H]1CC[C@@H]2CN1C(=O)N2OS(=O)(=O)O [Compound (XI), (2S, 5R)-6-sulfooxy-2-(aminomethyl)-7-oxo-1,6-diaza-bicyclo[3.2.1]octane]	1 (≈ 3.98 µM)	8 (≈ 31.8 µM)	2 (≈ 7.96 µM)	1 (≈ 3.98 µM)	4 (≈ 15.9 µM)	1 (≈ 3.98 µM)	–	–	–	–	good antibacterial activity
C[C@@H](O)[C@H]1C(=O)N2C(C(=O)O)=C(SCCN=CN)C[C@H]12 [Imipenem]	16 (≈ 53.4 µM)	16 (≈ 53.4 µM)	0.25 (≈ 0.835 µM)	16 (≈ 53.4 µM)	1 (≈ 3.34 µM)	0.25 (≈ 0.835 µM)	0.25	8	0.12	2	–
